Ki data for 1 compound are collected here from BindingDB's records for doi:10.1016/j.bmcl.2013.03.030 (Panthera Biopharma, 2013).

Bounds are passed on as bounds.

This assay has as its target Botulinum neurotoxin type A (Clostridium botulinum, UniProt P0DPI0). In words: Inhibition of Clostridium botulinum BoNT/A light chain (1 to 429 amino acid) using Abz-Thr-dArg-Ile-Asp-Glu-Ala-Asn-Gln-Arg-Ala-Thr-Lys-Nle-Lys(Dnp)-NH2 as substrate after 10 mins by FRET assay.

Chain of Botulinum neurotoxin type A (P0DPI0 2-448 limits assumed): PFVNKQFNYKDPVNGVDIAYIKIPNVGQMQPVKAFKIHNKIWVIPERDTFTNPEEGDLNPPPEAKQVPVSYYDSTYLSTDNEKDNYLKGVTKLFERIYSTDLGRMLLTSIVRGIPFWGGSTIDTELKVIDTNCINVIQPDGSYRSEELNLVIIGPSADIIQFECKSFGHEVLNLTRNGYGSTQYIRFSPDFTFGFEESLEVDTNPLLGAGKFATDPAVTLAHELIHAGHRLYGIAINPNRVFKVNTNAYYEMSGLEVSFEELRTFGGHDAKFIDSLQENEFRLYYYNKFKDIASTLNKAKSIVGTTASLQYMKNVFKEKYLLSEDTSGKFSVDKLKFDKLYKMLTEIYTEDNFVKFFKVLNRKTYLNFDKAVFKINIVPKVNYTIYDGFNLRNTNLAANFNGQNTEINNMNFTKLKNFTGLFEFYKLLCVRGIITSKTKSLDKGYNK

Take `O=C(Cc1sc(N2CCCC2)nc1O)NO`: the Ki was > 300 µM.
